# In US20250115669A1, “FGFR1/KLB Targeting Agonistic Antigen-Binding Proteins and Conjugates Thereof with GLP-1R Agonistic Peptides” (SANOFI, priority 2020, published 2025):
# Read-outs that look alike come from different tables or passages of the source. Peptide text beside a SMILES is read from it.
# What was measured:
# Assay type in all cases: cell-based
# [1] = biological target: T1, human GIP receptor (Homo sapiens, UniProt P48546); assay: HTRF cAMP assay in HEK-293 cells expressing human GIP receptor
# T1 construct: expressed in transfected cells; host or cells: PSC-HEK-293
# T1 sequence (P48546 22-466): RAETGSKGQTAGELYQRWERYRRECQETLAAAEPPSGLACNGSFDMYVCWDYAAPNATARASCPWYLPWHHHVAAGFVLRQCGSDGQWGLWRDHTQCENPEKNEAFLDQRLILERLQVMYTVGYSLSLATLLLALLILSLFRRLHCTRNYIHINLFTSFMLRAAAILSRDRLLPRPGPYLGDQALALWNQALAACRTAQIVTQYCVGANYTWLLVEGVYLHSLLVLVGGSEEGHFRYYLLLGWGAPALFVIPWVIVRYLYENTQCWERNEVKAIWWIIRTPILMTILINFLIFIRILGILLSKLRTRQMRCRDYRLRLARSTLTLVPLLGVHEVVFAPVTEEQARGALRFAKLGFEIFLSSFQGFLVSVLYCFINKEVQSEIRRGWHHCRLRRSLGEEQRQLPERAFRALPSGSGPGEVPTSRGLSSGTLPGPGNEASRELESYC
# [2] = biological target: T2, human GLP-1 receptor (Homo sapiens, UniProt P43220); assay: HTRF cAMP assay in HEK-293 cells expressing human GLP-1 receptor
# T2 construct: expressed in transfected cells; host or cells: PSC-HEK-293
# Procedure: Each vial contained 1.8 ml cells. The vials were slowly frozen to −80° C. in isopropanol, and then transferred in liquid nitrogen for storage.
# Cells were resuspended in assay buffer (cell buffer plus 2 mM IBMX) and adjusted to a cell density of 1 million cells/ml.
# For measurement of cAMP generation, 5 μl cells (final 5000 cells/well) and 5 μl of test compound were added to a 384-well plate, followed by incubation for 30 min at room temperature.
# The cAMP generated was determined using a kit from Cisbio Corp. based on HTRF (Homogenous Time Resolved Fluorescence). The cAMP assay was performed according to manufacturer's instructions (Cisbio).
# [3] = biological target: T3, human glucagon (GCG) receptor (Homo sapiens, UniProt P47871); assay: HTRF cAMP assay in HEK-293 cells expressing human glucagon receptor
# T3 construct: expressed in transfected cells; host or cells: PSC-HEK-293
# [4] = HEK-293 cells, read-out: HTRF cAMP EC50 Human GIPR
# [5] = HEK-293 cells, read-out: HTRF cAMP EC50 Human GLP-1R
# [6] = HEK-293 cells, read-out: HTRF cAMP EC50 Human GCGR
# T3 sequence (P47871 26-477): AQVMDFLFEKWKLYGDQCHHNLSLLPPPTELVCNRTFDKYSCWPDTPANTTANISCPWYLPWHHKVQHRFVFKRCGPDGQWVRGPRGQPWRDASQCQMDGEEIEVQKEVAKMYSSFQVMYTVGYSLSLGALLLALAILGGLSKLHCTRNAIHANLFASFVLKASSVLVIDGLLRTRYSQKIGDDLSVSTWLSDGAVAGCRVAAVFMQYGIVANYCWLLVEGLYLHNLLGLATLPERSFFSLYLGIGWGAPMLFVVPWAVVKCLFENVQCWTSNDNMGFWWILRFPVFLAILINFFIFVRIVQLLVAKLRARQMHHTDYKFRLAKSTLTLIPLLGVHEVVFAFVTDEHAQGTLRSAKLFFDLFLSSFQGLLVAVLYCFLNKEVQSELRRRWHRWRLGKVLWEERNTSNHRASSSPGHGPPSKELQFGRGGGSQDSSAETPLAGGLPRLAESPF
# T2 sequence (P43220 24-463): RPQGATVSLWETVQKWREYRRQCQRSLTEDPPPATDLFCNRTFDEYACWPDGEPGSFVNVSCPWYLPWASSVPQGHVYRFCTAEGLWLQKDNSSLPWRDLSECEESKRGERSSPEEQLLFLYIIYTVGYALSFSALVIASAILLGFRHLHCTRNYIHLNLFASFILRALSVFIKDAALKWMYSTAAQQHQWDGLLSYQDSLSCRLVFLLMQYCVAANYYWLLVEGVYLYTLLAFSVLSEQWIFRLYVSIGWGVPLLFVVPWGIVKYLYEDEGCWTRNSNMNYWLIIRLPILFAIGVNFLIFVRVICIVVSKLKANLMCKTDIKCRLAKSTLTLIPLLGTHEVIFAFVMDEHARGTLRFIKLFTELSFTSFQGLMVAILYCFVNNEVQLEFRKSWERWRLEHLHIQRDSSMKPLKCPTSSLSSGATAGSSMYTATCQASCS
SMILES,"EC50 [1, 4] [nM]","EC50 [2, 5] [nM]","EC50 [3, 6] [nM]",EC50 [1] [nM],EC50 [2] [nM],EC50 [3] [nM]
CC[C@H](C)[C@H](NC(=O)[C@H](Cc1ccccc1)NC(=O)[C@H](CC(C)C)NC(=O)[C@H](CCCNC(=N)N)NC(=O)[C@@H](NC(=O)[C@H](C)NC(=O)[C@H](CCC(=O)O)NC(=O)[C@H](CCC(=O)O)NC(=O)[C@H](CCC(=O)O)NC(=O)[C@H](CC(C)C)NC(=O)[C@H](CCC(N)=O)NC(=O)[C@H](CCCCN)NC(=O)[C@H](CO)NC(=O)[C@H](CCCCN)NC(=O)[C@H](CC(=O)O)NC(=O)[C@H](CO)NC(=O)[C@@H](NC(=O)[C@H](Cc1ccccc1)NC(=O)[C@@H](NC(=O)CNC(=O)[C@H](CCC(=O)O)NC(=O)CNC(=O)[C@H](Cc1c[nH]cn1)NC(=O)CN)[C@@H](C)O)[C@@H](C)O)C(C)C)C(=O)N[C@@H](CCC(=O)O)C(=O)N[C@@H](Cc1c[nH]c2ccccc12)C(=O)N[C@@H](CC(C)C)C(=O)N[C@@H](CCCCN)C(=O)N[C@@H](C)C(=O)NCC(=O)NCC(=O)N1CCC[C@H]1C(=O)N[C@@H](CCCCN)C(=O)N[C@@H](CCCCN)C(=O)N[C@H](C(=O)N[C@@H](CCCNC(=N)N)C(=O)N[C@@H](Cc1ccc(O)cc1)C(=O)N[C@@H](CO)C(N)=O)[C@@H](C)CC [Ab P014] (H-GHGEGTFTSDKSKQLEEEAVRLFIEWLKAGGPKKIRYS-NH2; N-terminus assumed),> 10,0.0105,5.4,,,
CC[C@H](C)[C@H](NC(=O)[C@H](CC(C)C)NC(=O)[C@H](Cc1c[nH]c2ccccc12)NC(=O)[C@H](Cc1ccc(O)cc1)NC(=O)[C@@H](NC(=O)[C@H](Cc1ccccc1)NC(=O)[C@H](CC(C)C)NC(=O)[C@H](CCCNC(=N)N)NC(=O)[C@H](CCC(N)=O)NC(=O)[C@H](CC(C)C)NC(=O)[C@H](CCCNC(=N)N)NC(=O)[C@H](CCCCN)NC(=O)[C@H](CCC(=O)O)NC(=O)[C@H](CC(C)C)NC(=O)[C@H](CCC(N)=O)NC(=O)[C@H](CCCCN)NC(=O)[C@H](CO)NC(=O)[C@H](CC(C)C)NC(=O)[C@H](CC(=O)O)NC(=O)[C@H](CO)NC(=O)[C@@H](NC(=O)[C@H](Cc1ccccc1)NC(=O)[C@@H](NC(=O)CNC(=O)[C@H](CCC(=O)O)NC(=O)CNC(=O)[C@@H](N)Cc1c[nH]cn1)[C@@H](C)O)[C@@H](C)O)[C@@H](C)CC)C(=O)N[C@@H](C)C(=O)NCC(=O)NCC(=O)N[C@@H](Cc1c[nH]cn1)C(=O)N[C@@H](CO)C(=O)N[C@@H](CO)C(=O)NCC(=O)N[C@@H](CCCCN)C(=O)N1CCC[C@H]1C(=O)N1CCC[C@H]1C(=O)N1CCC[C@H]1C(=O)N[C@@H](CCCCN)C(N)=O [Ab P025] (H-HGEGTFTSDLSKQLEKRLQRLFIYWLIAGGHSSGKPPPK-NH2; N-terminus assumed),1.6,0.0016,0.545,,,
CC[C@H](C)[C@H](NC(=O)[C@H](Cc1ccccc1)NC(=O)[C@H](CC(C)C)NC(=O)[C@H](CCC(N)=O)NC(=O)[C@@H](NC(=O)[C@H](C)NC(=O)[C@H](CCC(=O)O)NC(=O)[C@H](CCC(=O)O)NC(=O)[C@H](CCC(=O)O)NC(=O)[C@H](CC(C)C)NC(=O)[C@H](CCC(N)=O)NC(=O)[C@H](CCCCN)NC(=O)[C@H](CO)NC(=O)[C@H](CC(C)C)NC(=O)[C@H](CC(=O)O)NC(=O)[C@H](CO)NC(=O)[C@@H](NC(=O)[C@H](Cc1ccccc1)NC(=O)[C@@H](NC(=O)CNC(=O)[C@H](CCC(=O)O)NC(=O)CNC(=O)[C@H](Cc1c[nH]cn1)NC(=O)CN)[C@@H](C)O)[C@@H](C)O)C(C)C)C(=O)N[C@@H](C)C(=O)N[C@@H](Cc1c[nH]c2ccccc12)C(=O)N[C@@H](CC(C)C)C(=O)N[C@H](C(=O)N[C@@H](CCCCN)C(N)=O)C(C)C [Ab P041] (H-GHGEGTFTSDLSKQLEEEAVQLFIAWLVK-NH2; N-terminus assumed),> 10,0.0325,> 10,,,
CC[C@H](C)[C@H](NC(=O)[C@H](Cc1ccccc1)NC(=O)[C@H](CC(C)C)NC(=O)[C@H](CCC(N)=O)NC(=O)[C@@H](NC(=O)[C@H](CCCNC(=N)N)NC(=O)[C@H](CCC(=O)O)NC(=O)[C@H](CCC(=O)O)NC(=O)[C@H](CCC(=O)O)NC(=O)[C@H](CC(C)C)NC(=O)[C@H](CCC(N)=O)NC(=O)[C@H](CCCCN)NC(=O)[C@H](CO)NC(=O)[C@H](CC(C)C)NC(=O)[C@H](CC(=O)O)NC(=O)[C@H](CO)NC(=O)[C@@H](NC(=O)[C@H](Cc1ccccc1)NC(=O)[C@@H](NC(=O)CNC(=O)[C@H](CCC(=O)O)NC(=O)CNC(=O)[C@@H](N)Cc1c[nH]cn1)[C@@H](C)O)[C@@H](C)O)C(C)C)C(=O)N[C@@H](CCC(=O)O)C(=O)N[C@@H](Cc1c[nH]c2ccccc12)C(=O)N[C@@H](CC(C)C)C(=O)N[C@@H](CCCCN)C(=O)N[C@@H](C)C(=O)N[C@H](C(=O)NCC(=O)N1CCC[C@H]1C(=O)N[C@@H](CO)C(=O)N[C@@H](CO)C(=O)NCC(=O)N[C@@H](C)C(=O)N1CCC[C@H]1C(=O)N1CCC[C@H]1C(=O)N1CCC[C@H]1C(=O)N[C@@H](CO)C(N)=O)[C@@H](C)O [Ab P008] (H-HGEGTFTSDLSKQLEEERVQLFIEWLKATGPSSGAPPPS-NH2),,,,> 10,0.0232,> 10

# Further lines, with some results ahead:
"EC50 [1, 4] [nM]","EC50 [2, 5] [nM]","EC50 [3, 6] [nM]",SMILES,EC50 [1] [nM],EC50 [2] [nM],EC50 [3] [nM]
> 10,0.0627,> 10,CC[C@H](C)[C@H](NC(=O)[C@H](Cc1ccccc1)NC(=O)[C@H](CC(C)C)NC(=O)[C@H](CCCNC(=N)N)NC(=O)[C@@H](NC(=O)[C@H](C)NC(=O)[C@H](CCC(=O)O)NC(=O)[C@H](CCC(=O)O)NC(=O)[C@H](CCC(=O)O)NC(=O)[C@H](CC(C)C)NC(=O)[C@H](CCC(N)=O)NC(=O)[C@H](CCCCN)NC(=O)[C@H](CO)NC(=O)[C@H](CCCCN)NC(=O)[C@H](CC(=O)O)NC(=O)[C@H](CO)NC(=O)[C@@H](NC(=O)[C@H](Cc1ccccc1)NC(=O)[C@@H](NC(=O)CNC(=O)[C@H](CCC(=O)O)NC(=O)CNC(=O)[C@H](Cc1c[nH]cn1)NC(=O)CN)[C@@H](C)O)[C@@H](C)O)C(C)C)C(=O)N[C@@H](C)C(=O)N[C@@H](Cc1c[nH]c2ccccc12)C(=O)N[C@@H](CC(C)C)C(=O)N[C@H](C(=O)N[C@@H](CCCCN)C(N)=O)C(C)C [Ab P040] (H-GHGEGTFTSDKSKQLEEEAVRLFIAWLVK-NH2; N-terminus assumed),,,
> 10,0.125,> 10,CC[C@H](C)[C@H](NC(=O)[C@H](Cc1ccccc1)NC(=O)[C@H](CC(C)C)NC(=O)[C@H](CCCNC(=N)N)NC(=O)[C@H](CCC(N)=O)NC(=O)[C@H](C)NC(=O)[C@H](CCC(=O)O)NC(=O)[C@H](CCC(=O)O)NC(=O)[C@H](CCC(=O)O)NC(=O)[C@H](CC(C)C)NC(=O)[C@H](CCC(N)=O)NC(=O)[C@H](CCCCN)NC(=O)[C@H](CO)NC(=O)[C@H](CC(C)C)NC(=O)[C@H](CC(=O)O)NC(=O)[C@H](CO)NC(=O)[C@@H](NC(=O)[C@H](Cc1ccccc1)NC(=O)[C@@H](NC(=O)CNC(=O)[C@H](CCC(=O)O)NC(=O)CNC(=O)[C@H](Cc1c[nH]cn1)NC(=O)CN)[C@@H](C)O)[C@@H](C)O)C(=O)N[C@@H](CCC(=O)O)C(=O)N[C@@H](Cc1c[nH]c2ccccc12)C(=O)N[C@@H](CC(C)C)C(=O)N[C@@H](CCCCN)C(=O)N[C@@H](C)C(=O)NCC(=O)NCC(=O)N1CCC[C@H]1C(=O)N[C@@H](CO)C(=O)N[C@@H](CO)C(=O)NCC(=O)N[C@@H](CCCCN)C(=O)N1CCC[C@H]1C(=O)N1CCC[C@H]1C(=O)N1CCC[C@H]1C(=O)N[C@@H](CCCCN)C(N)=O [Ab P036] (H-GHGEGTFTSDLSKQLEEEAQRLFIEWLKAGGPSSGKPPPK-NH2; N-terminus assumed),,,
